Laboratory results as given in patent US8101634B2, “Bicyclic compounds and use as antidiabetics” (GlaxoSmithKline LLC, priority 2006, dated 2012).

Assays:
C57BI6/J mice = assay: Oral glucose tolerance test (OGTT) in normal mice one hour after oral administration; type: in vivo; details: for glucose area-under-the curve (AUC) over the 120 minute time course, result in words: OGTT in mice, vs vehicle; for % of Vehicle (glucose cAUC): OGTT one hour after p.o. dosing; for % of Vehicle (glucose cAUC) / Glucose cAUC (baseline corrected glucose area under the curve during OGTT): Examples 30 mg/kg, vildagliptin 10 mg/kg, n=10; for Glucose cAUC (baseline corrected glucose area under the curve during OGTT): fasted male C57BI6/J mice, OGTT 2 g dextrose/kg one hour after p.o. dosing, mean ± s.e.m., 120 min
Description: In Vivo Effects of GPR119 Agonists on Incretin Hormone Release and Glucose Homeostasis in Mice
Vehicle or compounds were delivered orally via a gavage needle (p.o. at 10 mls/kg). The effect of the GPR119 agonists on glucose homeostasis was assessed by conducting an oral glucose tolerance test (OGTT; 2 g dextrose per kg body weight) one hour after administration of vehicle or test compounds. Whole blood glucose levels were determined prior to compound administration, immediately before and 10, 20, 30, 45, 60, 90 and 120 after glucose administration, using a Glucometer (Freestyle, Therasense).
Table 1 summarizes the glucose excursions during the OGTT as the average baseline corrected glucose area under the curve (cAUC; ±s.e.m.) from the animals in each treatment group.

C57/BI6 mice = assay: Plasma total GLP-1 and total GIP in normal mice one hour after oral administration; type: in vivo; details: for total circulating GIP levels, result in words / total circulating GLP-1 levels, result in words: 1 hr after giving the compound, compared to vehicle; for Total GIP (plasma) / Total GLP-1 (plasma) / Total GIP, fold change vs. Vehicle / Total GLP-1, fold change vs. Vehicle: C56BI6/J mice, one hour following oral administration of 30 mg/kg; for Total GIP (plasma) / Total GLP-1 (plasma): fasted, mean ± s.e.m.
Description: GPR119 Agonists Elevate GIP and GLP-1 in Normal Mice
Male C57/BI6 mice 10 weeks of age were fasted for 15 hrs and randomly grouped (n=6-10) to receive vehicle (0.5% HPMC/0.1% Tween) or a GPR119 agonists of the present invention at 30 mg/kg. 1 hr after compound administration blood was collected by cardiac-stick following iso-fluorane aneasthesia. Blood for analysis of plasma levels of total GLP-1 and total GIP was placed in a K2-EDTA containing tubes supplemented with a DPP-IV inhibitor to prevent degradation of the incretin hormones (30 µM final concentration). Total GLP-1 was determined using an assay from Meso Scale Discovery (Gaithersburg, Md.). GIP was determined using an ELISA assay from Linco (St. Charles, Mo.). For each treatment group Table 2 summarizes the average plasma levels of total GLP-1 (±s.e.m.) from the number of animals in each treatment group as indicated.
Table 3 summarizes the average plasma levels of total GIP (±s.e.m.) from the number of animals in each treatment group as indicated.

| Compound | glucose area-under-the curve (AUC) over the 120 minute time course, result in words (C57BI6/J mice) | % of Vehicle (glucose cAUC) (C57BI6/J mice) [%] | Glucose cAUC (baseline corrected glucose area under the curve during OGTT) (C57BI6/J mice) [mg·min/dL] | total circulating GIP levels, result in words (C57/BI6 mice) | total circulating GLP-1 levels, result in words (C57/BI6 mice) | Total GIP (plasma) (C57/BI6 mice) [pg/mL] | Total GLP-1 (plasma) (C57/BI6 mice) [pg/mL] | Total GIP, fold change vs. Vehicle (C57/BI6 mice) | Total GLP-1, fold change vs. Vehicle (C57/BI6 mice) |
| --- | --- | --- | --- | --- | --- | --- | --- | --- | --- |
| CC(C)OC(=O)N1CCC(COc2ccc(-c3ccc(S(C)(=O)=O)cc3F)nc2)CC1 [Example 77, 1-Methylethyl 4-[({6-[2-fluoro-4-(methylsulfonyl)phenyl]-3-pyridinyl}oxy)methyl]-1-piperidinecarboxylate] | significantly lowered | 21 | 6884 ± 694 | increase | increase | 182 ± 12 | 7.5 ± 2.0 | 2.2 | 3.3 |
| CC(C)c1noc(N2CCC(COc3ccc(-c4ccc(S(C)(=O)=O)cc4F)nc3)CC2)n1 [Example 83, 2-[2-Fluoro-4-(methylsulfonyl)phenyl]-5-[({1-[3-(1-methylethyl)-1,2,4-oxadiazol-5-yl]-4-piperidinyl}methyl)oxy]pyridine] | significantly lowered | 23 | 6754 ± 286 | increase | increase | 275 ± 29 | 6.8 ± 1.8 | 3.3 | 3.0 |
